Results: US7169770B2, “Method of enhancing reproductive performance in sows” (priority 2001, dated 2007)
Read-outs that look alike come from different tables or passages of the source.

Experiments:
sows (PIC Line C22) = test: Sow feeding trial: L-carnitine and/or chromium tris-picolinate top dress over two parities, reproductive performance; type: in vivo; conditions: for First service FR %: first service farrowing rate; for No. of sows Weaned parity 1: Second parity section; for first service farrowing rate: parity 2; for No. of sows Farrowed in parity 1 / No. of sows Farrowed in parity 2 / Number of sows removed from experiment: sow longevity table
Protocol: This experiment was conducted on a commercial 1,500 sow farrow-to-wean operation in central Kansas and used 599 sows (PIC Line C22). Experimental treatments were arranged in a 2×2 factorial with main effects of added L-carnitine (0 or 50 ppm) and chromium tris-picolinate (0 or 200 ppb). Sows were started on test on the first day of breeding. Each sow remained on the same treatment through gestation, lactation, and through a second gestation period (2 parities). During gestation, all sows were fed a grain sorghum-soybean meal-based diet formulated to contain 0.65% lysine, 0.83% Ca, and 0.76% P. In lactation, all sows were fed a grain sorghum-soybean meal based diet formulated to contain 1.10% lysine, 0.90% Ca, and 0.80% P (Table 3). Dietary treatments were provided via a corn-based top dress fed at 30 g/d. The top dress was formulated to provide 90 mg/d and 250 mg/d carnitine in gestation and lactation, respectively. Chromium tris-picolinate was provided at 360 mcg/d and 1,000 mcg/d during gestation and lactation, respectively. These inclusions were calculated to provide 50 mg/kg carnitine (CarniFeed, Lonza Inc., NJ) and 200 mcg/kg chromium (Chromapure, Lonza Inc., NJ) when sows were fed 4 lb/d of the gestation diet and 11 lb/d of the lactation diet. The top dress was added to the top of the feed box between meals in order to be consumed with the rest of the diet. The top dress was color-coded (1% dyed corncobs) by treatment to assure proper distribution of experimental treatments.
At farrowing, the number of pigs born alive, as stillborn, as mummies, and total born were recorded. Total born was the sum of the number of pigs born alive, stillborn, and mummies. Sows were rebred after weaning (15 d lactation) and remained on the same treatment until farrowing a second litter. […] Sows that were bred at the start of the study, but were later found open, were removed from the trial. Procedures and data collection were identical for the second gestation and lactation period. However, dietary treatments were not administered during the second lactation period.
Calculations were made to determine the total number of pigs born, born alive, as stillborns, or as mummies per sow for the two parities. Total number of pigs were calculated using only sows that initially farrowed, then completed the second parity, as well as calculated from all the sows that were actually started on test.
Data were analyzed using the MIXED procedure of SAS. Sow was the experimental unit for the analysis with parity, previous lactation length, and/or week of farrowing as a covariate (Table IV) for total born, number of pigs born alive, mummies, and stillborn. A chi-square statistic was calculated to determine differences among treatments when analyzing percent in estrus and farrowing rate.

sows [1] = conditions: cited from earlier work
sows [2] = conditions: 200 μg/kg of chromium fed to sows; Lindemann et al. (1995b); cited from earlier work
[3] = all sows started on test for two parities
[4] = sows that completed parity one, two parities
[5] = L-carnitine added to gestating sow diets, Musser et al. (1999b)
[6] = 200 μg/kg of chromium, Lindemann et al. (1995b), Hagen et al. (2000)

Compound	% estrus by d 7 (sows (PIC Line C22); First parity) [%]	% estrus by d 18 (sows (PIC Line C22); First parity) [%]	No. of pigs Born alive (sows (PIC Line C22); First parity)	No. of pigs Mummies (sows (PIC Line C22); First parity)	No. of pigs Stiliborn (sows (PIC Line C22); First parity)	No. of pigs Total born (sows (PIC Line C22); First parity)	No. of sows Farrowed (sows (PIC Line C22); First parity)	WEI d (wean to estrus interval) (sows (PIC Line C22); First parity) [days]	First service FR % (sows (PIC Line C22); First parity) [%]	% estrus by d 7 (sows (PIC Line C22); Second parity) [%]	% estrus by d 18 (sows (PIC Line C22); Second parity) [%]	No. of pigs Born alive (sows (PIC Line C22); Second parity)	No. of pigs Mummies (sows (PIC Line C22); Second parity)	No. of pigs Stiliborn (sows (PIC Line C22); Second parity)	No. of pigs Total born (sows (PIC Line C22); Second parity)	No. of sows Bred by d 18 (sows (PIC Line C22); Second parity)	No. of sows Farrowed (sows (PIC Line C22); Second parity)	Percentage of weaned parity 1 sows that farrowed parity 2 (sows (PIC Line C22); Second parity) [%]	WEI (wean to estrus interval) (sows (PIC Line C22); Second parity)	No. of sows Weaned parity 1 (sows (PIC Line C22))	also measured
C[N+](C)(C)C[C@H](O)CC(=O)[O-] [Carnitine, L-carnitine]	88.6	91.5	9.8	0.26	0.98	11.4	140	4.6	91.9	76.9	80.8	9.9	0.33	1.02	11.2	128	104	73.9	4.7	140	First service FR % (sows (PIC Line C22); Second parity): 81.3%; Total pigs per sow, Born alive (sows (PIC Line C22); [3]): 16.3; Total pigs per sow, Mummies (sows (PIC Line C22); [3]): 0.5; Total pigs per sow, Stillborn (sows (PIC Line C22); [3]): 1.6; Total pigs per sow, Total born (sows (PIC Line C22); [3]): 18.4; first service farrowing rate (sows (PIC Line C22); result in words): did not influence; No. of sows Farrowed in parity 1 (sows (PIC Line C22)): 140; No. of sows Farrowed in parity 2 (sows (PIC Line C22)): 104; Number of sows removed from experiment (sows (PIC Line C22)): 46; Total pigs per sow, Born alive (sows (PIC Line C22); [4]): 17.6; Total pigs per sow, Mummies (sows (PIC Line C22); [4]): 0.5; Total pigs per sow, Stillborn (sows (PIC Line C22); [4]): 1.7; Total pigs per sow, Total born (sows (PIC Line C22); [4]): 19.8; farrowing rate, total number of pigs born or born alive (sows [1]; 50 mg/kg of carnitine during lactation, three experiments, Musser et al. (1999a)): minimal differences; farrowing rate (sows [1]; [5]): no effect; number of pigs born alive in the subsequent parity (sows [1]; [5]): increase; total number of pigs born and born alive (sows [1]; L-carnitine fed during gestation, Musser et al. (1999a)): increases
chromium tris-picolinate	86.7	91.7	10.2	0.39	1.26	11.5	138	4.7	95.5	81.0	82.9	9.5	0.40	1.09	11.0	127	102	74.3	4.6	138	plasma insulin and insulin to glucose ratio (sows [2]): decreased; First service FR % (sows (PIC Line C22); Second parity): 79.7%; Total pigs per sow, Born alive (sows (PIC Line C22); [3]): 16.2; Total pigs per sow, Mummies (sows (PIC Line C22); [3]): 0.7; Total pigs per sow, Stillborn (sows (PIC Line C22); [3]): 2.0; Total pigs per sow, Total born (sows (PIC Line C22); [3]): 18.8; farrowing rate (sows (PIC Line C22); our study, result in words): increases; number born alive (sows (PIC Line C22); our study, result in words): no improvements; number of stillborn pigs per litter (sows (PIC Line C22); our study, result in words): tendencies to increase; first service farrowing rate (sows (PIC Line C22); result in words): did not influence; No. of sows Farrowed in parity 1 (sows (PIC Line C22)): 138; No. of sows Farrowed in parity 2 (sows (PIC Line C22)): 102; Number of sows removed from experiment (sows (PIC Line C22)): 45; Total pigs per sow, Born alive (sows (PIC Line C22); [4]): 16.8; Total pigs per sow, Mummies (sows (PIC Line C22); [4]): 0.6; Total pigs per sow, Stillborn (sows (PIC Line C22); [4]): 2.1; Total pigs per sow, Total born (sows (PIC Line C22); [4]): 19.5; farrowing rate (sows [1]; [6]): no effects; number of pigs born alive (sows [1]; [6]): increases
